Results published in patent publication US10201558B2, “Compositions of selenoorganic compounds and methods of use thereof” (Alltech, Inc., priority 2014, dated 2019).
Entries after “also recorded” stand apart in the source; their conditions may differ.

Legend:
[1] = test system: phosphorylated FOXO3 in AML-12 cells; experiment: Phosphorylated FOXO in AML-12 liver cells; format: cell-based, mouse; conditions: 150 ppb, 6 hours and 24 hours
Method: Expression of phosphorylated FOXO1/3/4 in a non-neuronal mouse AML-12 liver cell line was examined Tests were performed at the same time and under the same experimental conditions as the human IMR-32 cells.

[2] = test system: IMR-32 cells; experiment: Mitochondrial potential assay (Mitotracker Orange); format: cell-based, human; conditions: 75 ppb and 150 ppb
Method: The mitochondrial potential per cell in control lentiviral KD IMR-32 or IMR-32 FOXO4 knockdown (KD) cells was determined using the Bio-TeK Synergy HT Multi-Mode fluorescence microplate reader with the following modifications. To improve the attachment of IMR-32 cells to culture dishes, cell culture plates were precoated with 0.1% gelatin (Sigma, St. Louis, Mo.).
To reduce cell dislodgment, Mitotracker Orange and Hoechst 33342 fluorescent dyes (diluted in culture media) were directly added to each well after control or compound treatments were added. After dye incubation, cell culture media was carefully replaced with 1×PBS buffer for the quantitation analysis of fluorescence on the microplate reader. Eight samples per each treatment were examined for the above analysis, and the experiments were repeated at least five times. Data are presented as mean±sem of eight samples.
Mitochondrial (MT) dysfunction and dysregulated glucose metabolism are associated with the onset of Alzheimer's Disease (AD). Likewise, as AD progresses, there is strong evidence that Aβ and Tau protein species precipitate further mitochondrial decline. […]

[3] = test system: MAPK11; experiment: QRT-PCR of MAPK11 mRNA in control and FOXO4 KD IMR-32 cells; format: cell-based, human; conditions: 24 hours
Method: IMR-32 cells were cultured on 12-well plates for 24 hours and then incubated with FOXO4 siRNA lentiviruses (SC-29650V, Santa Cruz) or control siRNA lentiviruses (sc-108080, Santa Cruz) in the presence of Polybrene (5 μg/ml, Santa Cruz) for 24 hours according to the manufacturer's protocol. These lentiviral siRNA-transfected cells were amplified in normal media for 3 days and then incubated with puromycin for 9-14 days to obtain the stable Control KD (stably transfected with the control siRNAs) and FOXO4KD (stably transfected with Foxo4 siRNAs) cells. These control and Foxo4 KD cells were subjected to cell survival, mitochondrial potential and RNA analysis.
Human IMR-32 cells were seeded on gelatinized 6-well (6.5×10^5 cells/well) or 24-well (1.3×10^5 cells/well) plates. Cells were treated with control (0 ppb) or various compounds for 6 hours or 24 hours. Total RNA from these cells was isolated using Trizol (Invitrogen) according to the manufacturer's protocol, and then incubated with DNase I to remove any potential contaminated genomic DNA. Then RNA samples were subjected to real-time PCR analysis using the Applied-Bioscience's RT kit and predesigned Taqman probes (Invitrogen), as described previously (Lan et al EMBO J 2003). The mRNA levels of UCP1, UCP2, UCP3, SLC25A27 (UCP4), SLC25A14 (UCP5), PSEN1, Nicastrin, GSK3B, MAPK11-14, PPARG, APOE, RCAN1, RCAN1.1, G6PC, INSR, IGF1R and FOXO4 were measured. Three to six samples were analyzed in each treatment group. Data were normalized by Actin B (ACTB) or Glyceraldehyde Phosphate Dehydrogenase (GAPDH) mRNA levels in each sample and are presented as mean±SEM of 3-6 samples.
Normal control cells and FOXO4KD cells were incubated with two doses of Compound C for 24 hours, and subjected to QRT-PCR analysis of the MAPK11-14 genes. The relative mRNA expression of all four MAPK genes in normal control IMR-32 cells was assessed. […] Data in Compound C-treated control and FOXO4 KD cells were normalized by their levels in control and FOXO4KD cells, respectively. Mean±SEM of indicated number of samples in the bar graphs. […]

[4] = test system: PSEN1; experiment: Western blot of PSEN1 protein in IMR-32 cells; format: cell-based, human; conditions: 150 ppb, 24 hours
Method: IMR-32 cells were seeded on 6-well plates and then treated with control and various compounds for 6 hours and 24 hours, as described above. After treatments, cells were rinsed with ice-cold PBS and lysed in ice-cold RIPA buffer containing complete proteinase and phosphatase inhibitors (Thermo-Fisher Scientific, Waltham, Mass.) on ice for 30 min Cell lysates were collected using a cell scraper and transfer pipette and then centrifuged at 12000×g for 30 min at 4° C. to remove the DNA pellet and obtain the protein extract. Protein levels in the supernatant of these cell lysates were determined using the Pierce Micro-BCA protein assay kit (Thermo Scientific-Piece Biotechnology, Rockford, Ill.) according to the manufacturer's protocol […]
Positive signals on the membrane blots were detected using Amersham's enhanced chemiluminescence (ECL) Western Blotting Prime Detection reagents (GE healthcare Lifescience, Pittsburgh, Pa.). Images of these luminescence signals on the membrane blots were captured using the LI-COR Odyssey Fc Image system (Lincoln, Nebr.). […] Protein band densities in the Western blots were determined using the Li—COR Image studio software or NIH ImageJ software, and then normalized by ACTB protein level in each sample. […]

`C[Se]C[C@H]1O[C@@H](n2cnc3c(N)ncnc32)C(O)C1O` (stereo in doubt) [Compound C, 5′-deoxy-5′-methylselenoadenosine] was tested, and the “phosphorylation of FOXO3” value [1] was “did not affect”, the “MT potential (red fluorescence intensities, micrographs)” value ([2]; 6 hours) was “remarkably enhanced” and the “MT potential, quantitative analysis normalized by stained cell nuclei” value ([2]; 6 hours and 24 hours) was “significant increase; also recorded: enhanced”. For the same compound, the “MAPK11 mRNA levels” value ([3]; FOXO4KD cells, 75 ppb and 150 ppb) was “none of the mRNA levels of the four MAPK genes in FOXO4KD cells were significantly altered”, the “MAPK11 mRNA levels” value ([3]; control KD cells, 75 ppb) was “significant decrease” and the “MAPK11 mRNA levels” value ([3]; control KD cells, 150 ppb) was “significantly decreased”. For the same compound, the PSEN1 protein levels [4] was “significant reduction”.
